In ChEMBL document CHEMBL1201862, “PubChem BioAssay data set” (2004):
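Growth conditions: 96-well plates. Treatment: test compound, 48 hours, 5 concentrations. Analysis: linear interpolation between bracketing concentrations; unreached endpoints set to highest concentration. GI50 is the concentration that inhibits growth by half.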 Active and inactive are the calls of the source. No stated cut-off is given here; in the data, active = GI50 up to about 1.1 µM and inactive = higher.

Columns and labels:
Assay in all cases: NCI-60 cell line screen, 48 h
[1] = test system: 786-0
[2] = test system: A498
[3] = test system: A549
[4] = test system: BT-549
[5] = test system: HOP-62
[6] = test system: HT-29
[7] = test system: KM12
[8] = test system: LOX IMVI
[9] = test system: MCF7
[10] = test system: NCI-H226
[11] = test system: OVCAR-4
[12] = test system: PC-3
[13] = test system: SK-MEL-2
[14] = test system: SK-MEL-5
[15] = test system: SK-OV-3
[16] = test system: SN12C
[17] = test system: SNB-19
[18] = test system: SW-620
[19] = test system: U-251
[20] = test system: HCC 2998

Compound | GI50 [1] | GI50 [2] | GI50 [3] | GI50 [4] | GI50 [5] | GI50 [6] | GI50 [7] | GI50 [8] | GI50 [9] | GI50 [10] | GI50 [11] | GI50 [12] | GI50 [13] | GI50 [14] | GI50 [15] | GI50 [16] | GI50 [17] | GI50 [18] | GI50 [19] | GI50 [20]
Cc1cn([C@H]2C[C@H](O)[C@@H](CO)O2)c(=O)nc1N | > 100 µM (inactive) | > 100 µM (inactive) | > 100 µM (inactive) | > 100 µM (inactive) | > 100 µM (inactive) | > 100 µM (inactive) | > 100 µM (inactive) | > 100 µM (inactive) | > 100 µM (inactive) | > 100 µM (inactive) | > 100 µM (inactive) | > 100 µM (inactive) | > 100 µM (inactive) | > 100 µM (inactive) | > 100 µM (inactive) | > 100 µM (inactive) | > 100 µM (inactive) | > 100 µM (inactive) | > 100 µM (inactive) | –
Cc1cc2c(O)nc(N)nc2nc1C | > 100 µM (inactive) | > 100 µM (inactive) | > 100 µM (inactive) | > 100 µM (inactive) | > 100 µM (inactive) | > 100 µM (inactive) | > 100 µM (inactive) | > 100 µM (inactive) | > 100 µM (inactive) | > 100 µM (inactive) | > 100 µM (inactive) | > 100 µM (inactive) | > 100 µM (inactive) | > 100 µM (inactive) | > 100 µM (inactive) | > 100 µM (inactive) | > 100 µM (inactive) | > 100 µM (inactive) | > 100 µM (inactive) | –
CCOC(=O)c1nc2cc(F)c(F)cc2nc1NCc1cc(OC)c(OC)c(OC)c1 | 57.1 µM (inactive) | > 100 µM (inactive) | > 100 µM (inactive) | > 100 µM (inactive) | 38.5 µM (inactive) | > 100 µM (inactive) | > 100 µM (inactive) | > 100 µM (inactive) | > 100 µM (inactive) | – | > 100 µM (inactive) | > 100 µM (inactive) | > 100 µM (inactive) | 76.7 µM (inactive) | > 100 µM (inactive) | > 100 µM (inactive) | 42.5 µM (inactive) | > 100 µM (inactive) | 35.9 µM (inactive) | –
O=S(=O)(c1ccccc1)n1c(C(O)c2ccncc2)cc2ccccc21 (configuration not stated) | 68.5 µM (inactive) | 38.7 µM (inactive) | 31.3 µM (inactive) | 45.4 µM (inactive) | > 100 µM (inactive) | 44.6 µM (inactive) | 57.1 µM (inactive) | 40.3 µM (inactive) | 20.9 µM (inactive) | 27 µM (inactive) | 31.8 µM (inactive) | 35.9 µM (inactive) | 52.6 µM (inactive) | 16.8 µM (inactive) | 44.4 µM (inactive) | > 100 µM (inactive) | 50 µM (inactive) | 32 µM (inactive) | 41 µM (inactive) | –
CCC(C)N1CN(c2ccccc2)C2(CCN(CCCC(=O)c3ccc(F)cc3)CC2)C1=O (configuration not stated) | > 100 µM (inactive) | 2.82 µM (inactive) | 6.03 µM (inactive) | 13.1 µM (inactive) | 1.87 µM (inactive) | 0.429 µM (active) | – | 2.74 µM (inactive) | 0.381 µM (active) | – | 3.03 µM (inactive) | 10.6 µM (inactive) | 14.9 µM (inactive) | 1.19 µM (inactive) | 9.29 µM (inactive) | 3.88 µM (inactive) | – | 3.77 µM (inactive) | 4.47 µM (inactive) | –
Cc1cc(OCC(=O)N/N=C/C(Br)=C/c2ccccc2)nc(SCC(=O)N/N=C/C(Br)=C/c2ccccc2)n1 | 34.8 µM (inactive) | > 100 µM (inactive) | – | > 100 µM (inactive) | 51.5 µM (inactive) | > 100 µM (inactive) | 39.9 µM (inactive) | > 100 µM (inactive) | 75.7 µM (inactive) | – | 42 µM (inactive) | 54.1 µM (inactive) | – | > 100 µM (inactive) | – | > 100 µM (inactive) | > 100 µM (inactive) | > 100 µM (inactive) | > 100 µM (inactive) | 23 µM (inactive)
